Earlier results, collected in patent US8524285B2, “Nutraceutical mangosteen composition” (DBC, LLC, priority 2002, dated 2013).

Experiments:
COX-1 = COX-1 (Homo sapiens, UniProt P23219); settings: constitutive isoform; Nakatani et al. (2002)
type B monoamine oxidase = biological target: T1, type B monoamine oxidase (Homo sapiens, UniProt P27338); settings: Nakatani et al., 63 Biochemical Pharmacology 73-79 (2002)
T1 sequence (P27338 1-520): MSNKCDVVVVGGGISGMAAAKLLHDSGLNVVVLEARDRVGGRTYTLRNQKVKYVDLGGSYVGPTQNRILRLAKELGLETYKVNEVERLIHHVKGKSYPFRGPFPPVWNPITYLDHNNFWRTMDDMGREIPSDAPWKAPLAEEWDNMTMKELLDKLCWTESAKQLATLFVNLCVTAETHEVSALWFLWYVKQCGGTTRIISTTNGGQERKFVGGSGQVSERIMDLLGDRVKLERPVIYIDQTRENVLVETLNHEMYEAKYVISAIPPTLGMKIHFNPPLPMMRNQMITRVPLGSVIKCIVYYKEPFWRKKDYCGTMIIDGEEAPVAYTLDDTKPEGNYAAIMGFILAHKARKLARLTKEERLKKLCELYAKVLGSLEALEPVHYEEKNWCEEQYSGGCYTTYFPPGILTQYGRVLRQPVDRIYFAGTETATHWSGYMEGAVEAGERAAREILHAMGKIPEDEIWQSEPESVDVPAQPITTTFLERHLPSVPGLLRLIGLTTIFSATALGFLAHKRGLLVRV

type A monoamine oxidase = biological target: T2, type A monoamine oxidase (Homo sapiens, UniProt P21397); settings: Nakatani et al., 63 Biochemical Pharmacology 73-79 (2002)
T2 sequence (P21397 1-527): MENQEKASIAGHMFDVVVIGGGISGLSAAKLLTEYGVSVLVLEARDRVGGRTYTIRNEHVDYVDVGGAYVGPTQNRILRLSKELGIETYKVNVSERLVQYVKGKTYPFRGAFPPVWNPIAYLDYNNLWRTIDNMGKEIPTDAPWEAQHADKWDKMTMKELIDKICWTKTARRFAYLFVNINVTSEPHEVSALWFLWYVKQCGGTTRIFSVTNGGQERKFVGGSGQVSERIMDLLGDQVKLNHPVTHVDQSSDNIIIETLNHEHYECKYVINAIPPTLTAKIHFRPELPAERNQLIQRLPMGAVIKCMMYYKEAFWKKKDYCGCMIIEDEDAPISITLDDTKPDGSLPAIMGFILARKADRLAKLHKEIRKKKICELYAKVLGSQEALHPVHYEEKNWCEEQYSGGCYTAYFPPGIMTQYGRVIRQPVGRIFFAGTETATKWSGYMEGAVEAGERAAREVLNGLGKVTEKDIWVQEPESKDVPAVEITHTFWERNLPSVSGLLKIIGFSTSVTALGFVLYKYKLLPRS

[1] = tested on: prostaglandin E2 synthesis; settings: Nakatani et al. (2002)

Chain of COX-1 (P23219 24-599): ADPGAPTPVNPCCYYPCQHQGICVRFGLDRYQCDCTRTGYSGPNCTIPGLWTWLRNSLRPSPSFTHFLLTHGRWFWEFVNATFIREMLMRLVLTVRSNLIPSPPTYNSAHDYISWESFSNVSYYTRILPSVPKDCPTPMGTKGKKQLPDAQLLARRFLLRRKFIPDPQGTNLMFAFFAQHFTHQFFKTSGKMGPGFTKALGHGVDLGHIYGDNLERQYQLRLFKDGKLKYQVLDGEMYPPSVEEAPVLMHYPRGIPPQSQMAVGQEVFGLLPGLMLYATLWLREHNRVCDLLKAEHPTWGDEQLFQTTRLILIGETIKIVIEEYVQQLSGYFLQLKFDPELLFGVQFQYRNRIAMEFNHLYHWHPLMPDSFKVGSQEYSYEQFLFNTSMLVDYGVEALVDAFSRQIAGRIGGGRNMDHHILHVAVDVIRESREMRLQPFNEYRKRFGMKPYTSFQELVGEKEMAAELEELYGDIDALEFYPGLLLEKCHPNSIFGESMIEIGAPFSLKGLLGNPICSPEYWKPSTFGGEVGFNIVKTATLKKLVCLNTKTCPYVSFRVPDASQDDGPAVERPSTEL

Compound: CC(C)=CCc1c(O)cc2oc3cc(O)c(O)c(CC=C(C)C)c3c(=O)c2c1O [γ-mangostin]
- inhibition of COX-1 activity (COX-1): directly inhibit
- inhibition of type B monoamine oxidase (type B monoamine oxidase): inhibits
- inhibition of type A monoamine oxidase (type A monoamine oxidase): inhibits
- inhibition of prostaglandin E2 synthesis [1]: inhibits
